Legend:
Test in all cases: relative viability (nuclei count vs DMSO), 5 days (fraction); higher = more cells survive
NCI-H596 = system: NCI-H596
Method in brief: (§1)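 After 5 days of treatment, lung cancer cells in 1536-well plates were fixed and stained in a single step (final 0.05% Triton X-100, 1% formaldehyde, 1 ug/ml Hoechst) and their nuclei counted on 4× images. Treatment had been applied by pin tool the day after seeding as one drug alone or as a fixed anchor-drug dose with five library-drug doses (not always all listed) in √10 steps. Relative viability is the nuclei count of treated wells divided by that of vehicle wells, and values are medians of duplicate plates.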

NCI-H2087 = system: NCI-H2087
Method in brief: as §1

NCI-H650 = system: NCI-H650
Method in brief: as §1

LCLC-97TM1 = system: LCLC-97TM1
Method in brief: as §1

NCI-H1651 = system: NCI-H1651
Method in brief: as §1

PC-3 [JPC-3] = system: PC-3 [JPC-3]
Method in brief: as §1

LC-2-ad = system: LC-2-ad
Method in brief: as §1

ChaGo-K-1 = system: ChaGo-K-1
Method in brief: as §1

LU99A = system: LU99A
Method in brief: as §1

LK-2 = system: LK-2
Method in brief: as §1

NCI-H2342 = system: NCI-H2342
Method in brief: as §1

NCI-H1944 = system: NCI-H1944
Method in brief: as §1

SK-MES-1 = system: SK-MES-1
Method in brief: as §1

HCC-78 = system: HCC-78
Method in brief: as §1

BEN = system: BEN
Method in brief: as §1

NCI-H1355 = system: NCI-H1355
Method in brief: as §1

NCI-H661 = system: NCI-H661
Method in brief: as §1

NCI-H1666 = system: NCI-H1666
Method in brief: as §1

NCI-H838 = system: NCI-H838
Method in brief: as §1

LXF-289 = system: LXF-289
Method in brief: as §1

NCI-H1975 = system: NCI-H1975
Method in brief: as §1

NCI-H358 = system: NCI-H358
Method in brief: as §1

## COc1nc(C)cnc1NS(=O)(=O)c1cccnc1-c1ccc(-c2nnco2)cc1 [Zibotentan] + COc1cccc2cc(-c3nc([C@H]4CC[C@H](C(=O)O)CC4)n4ncnc(N)c34)[nH]c12 [OSI-027] (partner 0.5 µM)
NCI-H596; first compound 0.08 µM
  relative viability: 0.776
NCI-H596; first compound 0.253 µM
  relative viability: 0.643
NCI-H596; first compound 0.8 µM
  relative viability: 0.52
NCI-H596; first compound 2.53 µM
  relative viability: 0.717
NCI-H2087; first compound 0.08 µM
  relative viability: 0.506
NCI-H2087; first compound 0.253 µM
  relative viability: 0.506
NCI-H2087; first compound 0.8 µM
  relative viability: 0.613
NCI-H2087; first compound 2.53 µM
  relative viability: 0.632
NCI-H650; first compound 0.08 µM
  relative viability: 0.54
NCI-H650; first compound 0.253 µM
  relative viability: 0.509
NCI-H650; first compound 0.8 µM
  relative viability: 0.566
NCI-H650; first compound 2.53 µM
  relative viability: 0.649
LCLC-97TM1; first compound 0.08 µM
  relative viability: 0.602
LCLC-97TM1; first compound 0.253 µM
  relative viability: 0.72
LCLC-97TM1; first compound 0.8 µM
  relative viability: 0.606
LCLC-97TM1; first compound 2.53 µM
  relative viability: 0.49
NCI-H1651; first compound 0.08 µM
  relative viability: 0.694
NCI-H1651; first compound 0.253 µM
  relative viability: 0.641
NCI-H1651; first compound 0.8 µM
  relative viability: 0.701
NCI-H1651; first compound 2.53 µM
  relative viability: 0.72
PC-3 [JPC-3]; first compound 0.08 µM
  relative viability: 0.789
PC-3 [JPC-3]; first compound 0.253 µM
  relative viability: 0.791
PC-3 [JPC-3]; first compound 0.8 µM
  relative viability: 0.737
PC-3 [JPC-3]; first compound 2.53 µM
  relative viability: 0.89
LC-2-ad; first compound 0.08 µM
  relative viability: 0.817
LC-2-ad; first compound 0.8 µM
  relative viability: 1.13
LC-2-ad; first compound 2.53 µM
  relative viability: 0.79
ChaGo-K-1; first compound 0.08 µM
  relative viability: 0.547
ChaGo-K-1; first compound 0.253 µM
  relative viability: 0.579
ChaGo-K-1; first compound 0.8 µM
  relative viability: 0.583
ChaGo-K-1; first compound 2.53 µM
  relative viability: 0.604
LU99A; first compound 0.08 µM
  relative viability: 0.32
LU99A; first compound 0.253 µM
  relative viability: 0.302
LU99A; first compound 0.8 µM
  relative viability: 0.274
LU99A; first compound 2.53 µM
  relative viability: 0.338
LK-2; first compound 0.08 µM
  relative viability: 0.207
LK-2; first compound 0.253 µM
  relative viability: 0.173
LK-2; first compound 0.8 µM
  relative viability: 0.244
LK-2; first compound 2.53 µM
  relative viability: 0.216
NCI-H2342; first compound 0.08 µM
  relative viability: 0.621
NCI-H2342; first compound 0.253 µM
  relative viability: 0.559
NCI-H2342; first compound 0.8 µM
  relative viability: 0.576
NCI-H2342; first compound 2.53 µM
  relative viability: 0.758
NCI-H1944; first compound 0.08 µM
  relative viability: 0.439
NCI-H1944; first compound 0.253 µM
  relative viability: 0.393
NCI-H1944; first compound 0.8 µM
  relative viability: 0.427
NCI-H1944; first compound 2.53 µM
  relative viability: 0.465
SK-MES-1; first compound 0.08 µM
  relative viability: 0.595
SK-MES-1; first compound 0.253 µM
  relative viability: 0.228
SK-MES-1; first compound 0.8 µM
  relative viability: 0.555
SK-MES-1; first compound 2.53 µM
  relative viability: 0.702
HCC-78; first compound 0.08 µM
  relative viability: 0.358
HCC-78; first compound 0.253 µM
  relative viability: 0.332
HCC-78; first compound 0.8 µM
  relative viability: 0.356
HCC-78; first compound 2.53 µM
  relative viability: 0.323
BEN; first compound 0.08 µM
  relative viability: 0.301
BEN; first compound 0.253 µM
  relative viability: 0.286
BEN; first compound 0.8 µM
  relative viability: 0.27
BEN; first compound 2.53 µM
  relative viability: 0.261
NCI-H1355; first compound 0.08 µM
  relative viability: 0.375
NCI-H1355; first compound 0.253 µM
  relative viability: 0.377
NCI-H1355; first compound 0.8 µM
  relative viability: 0.458
NCI-H1355; first compound 2.53 µM
  relative viability: 0.492
NCI-H661; first compound 0.08 µM
  relative viability: 0.801
NCI-H661; first compound 0.253 µM
  relative viability: 0.671
NCI-H661; first compound 0.8 µM
  relative viability: 0.705
NCI-H661; first compound 2.53 µM
  relative viability: 0.756
NCI-H1666; first compound 0.08 µM
  relative viability: 0.929
NCI-H1666; first compound 0.253 µM
  relative viability: 0.751
NCI-H1666; first compound 0.8 µM
  relative viability: 0.814
NCI-H1666; first compound 2.53 µM
  relative viability: 0.877
NCI-H838; first compound 0.08 µM
  relative viability: 0.349
NCI-H838; first compound 0.253 µM
  relative viability: 0.366
NCI-H838; first compound 0.8 µM
  relative viability: 0.393
NCI-H838; first compound 2.53 µM
  relative viability: 0.389
LXF-289; first compound 0.08 µM
  relative viability: 0.82
LXF-289; first compound 0.253 µM
  relative viability: 0.794
LXF-289; first compound 0.8 µM
  relative viability: 0.871
LXF-289; first compound 2.53 µM
  relative viability: 0.839
NCI-H1975; first compound 0.08 µM
  relative viability: 0.783
NCI-H1975; first compound 0.253 µM
  relative viability: 0.696
NCI-H1975; first compound 0.8 µM
  relative viability: 0.566
NCI-H1975; first compound 2.53 µM
  relative viability: 0.661
NCI-H358; first compound 0.08 µM
  relative viability: 0.833
NCI-H358; first compound 0.253 µM
  relative viability: 0.531
NCI-H358; first compound 0.8 µM
  relative viability: 0.725
NCI-H358; first compound 2.53 µM
  relative viability: 0.824

— the supplement of paper PMC10307832
